Data set [1] is described as follows: Cytotoxicity (MTT / CellTiter-Glo cell viability) in Vero-E6 cells. Type of data set: cell-based, African green monkey. The following applies: African green monkey, Vero-E6 cells, at MNCC, 48 h exposure, normalized to untreated control; mean 2x. An excerpt: (§1) An 80% viability threshold was established for selecting the compounds for further analysis.
For orientation: Cellular ATP, detected with luciferase, serves as a proxy for viable cell number.

A short description of data set [2]: Cytotoxicity (MTT / CellTiter-Glo cell viability) in Calu-3 cells. Type of data set: cell-based, human. The settings on record: human, Calu-3 cells, at MNCC, 48 h exposure, normalized to untreated control; mean 2x.
Text: as §1

In another data set the test system is Vero-E6 and Calu-3 cells. Put plainly: Maximum non-cytotoxic concentration (MNCC) determination. The following applies: 48 h. The class given is cell-based.
Text: as §1

The test system of another data set is Vero-E6 cells. Put plainly: Cytotoxicity (MTT / CellTiter-Glo cell viability) in Vero-E6 cells. The class given is cell-based, African green monkey. The settings on record: at MNCC, 48 h exposure, normalized to untreated control, mean 2x.
Text: as §1

A further data set concerns Calu-3 cells. Briefly: Cytotoxicity (MTT / CellTiter-Glo cell viability) in Calu-3 cells. The class given is cell-based, human. The settings on record: at MNCC, 48 h exposure, normalized to untreated control, mean 2x.
Text: as §1

The conditions of data set [3]: doses commonly administered in human treatments; ref Byakika-Kibwika et al., 2012 (ASi); Nicol et al., 2020 (CQ, HCQ); Gonzalez Canga et al., 2008 (IVM); Bhatia et al., 1986 (PQ); cited from earlier work.
The nature of data set [4]: CC50 determination in Vero E6 cells. The settings on record: African green monkey.
Text: DMSO was used as a negative control. To calculate the IC50 and CC50, a 4-parameter nonlinear regression sigmoidal concentration-response function was undertaken using the Prism 10 software package (GraphPad, Boston, MA, USA).
The next data set has as its system SARS-CoV-2. The arrangement: method as in Gendrot et al., 2020c. The following applies: other studies; ref Gendrot et al., 2020c; cited from earlier work.
The next data set has as its system Vero E6 cells. Briefly: CC50 determination in Vero E6 cells. The following applies: Vero E6.
Where [5] appears, read: CC50 (Figure 4 curve), Vero-E6, sigmoidal 4PL fit.

The source of these data is publication PMC12175177 (Frontiers in Pharmacology, 2025).

Converted amounts (≈) assume the structure as drawn. Where a name gives a salt, the structure may show the parent alone.

The term viability denotes a read-out of living cells in per cent, often relative to untreated cells. One may read the CC50 as the concentration giving 50% cytotoxicity. A lower CC50 goes with greater toxicity to the cells. Usually EC50 stands for the concentration giving half of the maximal effect. Broadly, the EC90 is the concentration needed for an effect of 90%.

`CCN(CC)Cc1cc(Nc2ccnc3cc(Cl)ccc23)ccc1O` [Amodiaquine (AQ), Amodiaquine]: the viability at 48 h in data set [1] came out at 84%; in data set [2], 82%. Moreover, the “MNCC Concentration” value with Vero-E6 and Calu-3 cells came to 20 µM.
For `CCO[C@H]1O[C@@H]2O[C@@]3(C)CC[C@H]4[C@H](C)CC[C@@H]([C@H]1C)[C@@]24OO3` [Arteether (AE), Arteether], the viability at 48 h was 104% in data set [1] and 97% in data set [2]. For the same molecule, in the data set with Vero-E6 and Calu-3 cells, the “MNCC Concentration” value came to 125 µM.
Turning to `C[C@H]1[C@@H](OCc2ccc(C(=O)O)cc2)O[C@@H]2O[C@@]3(C)CC[C@H]4[C@H](C)CC[C@@H]1[C@@]24OO3` [Artelinic Acid (AA), Artelinic Acid], in the data set on Vero-E6 cells, the “% viability Vero E6” value is 100%. Moreover, in the data set with Calu-3 cells, the “% viability Calu-3” value was 92%. Besides, in the data set with Vero-E6 and Calu-3 cells, the “MNCC Concentration” value came out at 30 µM.
As to `C[C@H]1[C@H](N2CCS(=O)(=O)CC2)O[C@@H]2O[C@@]3(C)CC[C@H]4[C@H](C)CC[C@@H]1[C@@]24OO3` [Artemisone (ASO), Artemisone], the viability at 48 h is 92% in data set [1] and 93% in data set [2]. Further, the “MNCC Concentration” value with Vero-E6 and Calu-3 cells worked out at 125 µM.
Turning to `C[C@H]1[C@H](OC(=O)CCC(=O)O)O[C@@H]2O[C@@]3(C)CC[C@H]4[C@H](C)CC[C@@H]1[C@@]24OO3` [Artesunate injection (ASi), Artesunate], the “% viability Vero E6” value in the data set with Vero-E6 cells was 81%. The “% viability Calu-3” value in the data set on Calu-3 cells was 82%. The “MNCC Concentration” value was 50 µM in the data set on Vero-E6 and Calu-3 cells; 50 µM with Vero-E6 and Calu-3 cells (listed as ASi). For the same molecule, the “Cmax (maximum plasma concentration)” value in data set [3] was 3300 ng/mL. Moreover, the CC50 at 72 h in [4] (CC50% in µg/mL, Vero E6) turned out to be 27 µg/mL; in data set [4] (CC50%, Vero E6), 70.3 µM.
Regarding `C[C@H]1[C@H](OC(=O)CCC(=O)O)O[C@@H]2O[C@@]3(C)CC[C@H]4[C@H](C)CC[C@@H]1[C@@]24OO3` [Artesunic acid (AS), Artesunic acid], the viability at 48 h in data set [1] and in [2] was less than 80% each time. The “% viability Vero E6” value in the data set with Vero-E6 cells is listed as 74%. Further, the “% viability Calu-3” value in the data set with Calu-3 cells was 74%. Moreover, in the data set with Vero-E6 and Calu-3 cells, the “MNCC Concentration” value came out at 125 µM.
Regarding `CC[C@H]1OC(=O)[C@H](C)[C@@H](O[C@H]2C[C@@](C)(OC)[C@@H](O)[C@H](C)O2)[C@H](C)[C@@H](O[C@@H]2O[C@H](C)C[C@H](N(C)C)[C@H]2O)[C@](C)(O)C[C@@H](C)CN(C)[C@H](C)[C@@H](O)[C@]1(C)O` [Azithromycin dehydrate (AZH), Azithromycin dehydrate], the viability at 48 h in data set [1] amounted to 92%; in data set [2] it was 87%. For the same molecule, in the data set on Vero-E6 and Calu-3 cells, the “MNCC Concentration” value is 30 µM.
The corresponding values for `CN(C)C(=O)COC(=O)Cc1ccc(OC(=O)c2ccc(NC(=N)N)cc2)cc1` [Camostat mesylate (CAM), Camostat mesylate] are 118%, 112% and 50 µM.
With `CCN(CC)CCCC(C)Nc1ccnc2cc(Cl)ccc12` (stereo not shown) [Chloroquine diphosphate (CQ), Chloroquine diphosphate], the viability at 48 h in [1] worked out at 103%; in data set [2], 105%. Besides, the “MNCC Concentration” value with Vero-E6 and Calu-3 cells is 5 µM. In addition, in the data set with SARS-CoV-2, the EC50 was 2.1 µM. Besides, the EC90 in the data set on SARS-CoV-2 was 3.8 µM. In addition, the “Cmax (maximum plasma concentration)” value in [3] was 2700 ng/mL. Also, the CC50 at 72 h in data set [4] (CC50% in µg/mL, Vero E6) was 17 µg/mL; in data set [4] (CC50%, Vero E6), 53.2 µM; in [4] (setting [5]) it was 57.1 µM.
Take `CCN(CCO)CCCC(C)Nc1ccnc2cc(Cl)ccc12` (stereo not shown) [Hydroxychloroquine Minsa (HCQ-m), Hydroxychloroquine]: the figures for the “% viability Vero E6” value with Vero-E6 cells and in the data set on Vero-E6 cells (listed as HCQ-m) were 72% and less than 80%, respectively. For the same molecule, in the data set with Calu-3 cells, the “% viability Calu-3” value was found to be 84%.
As for `CCN(CCO)CCCC(C)Nc1ccnc2cc(Cl)ccc12` (stereo not shown) [Hydroxychloroquine sulfate (HCQ), Hydroxychloroquine sulfate], the “% viability Vero E6” value in the data set on Vero-E6 cells was 47%; in the data set with Vero-E6 cells (listed as HCQ sulfate) it was less than 80%. Further, the viability at 48 h in [2] is less than 80%. Also, the “% viability Calu-3” value in the data set on Calu-3 cells is given as 64%. Moreover, the “Cmax (maximum plasma concentration)” value in [3] was 130 ng/mL. Besides, the CC50 at 72 h in data set [4] (CC50% in µg/mL, Vero E6) stood at 23.2 µg/mL; in data set [4] (CC50%, Vero E6), 72.1 µM; in data set [4] (setting [5]) it was 72.1 µM.
For the molecule `O=C(Nc1cccc(C2=NCCN2)c1)Nc1cccc(C2=NCCN2)c1` [Imidocarb (IMI), Imidocarb], the viability at 48 h in data set [1] is 92%; in [2] it was 106%.
As to `CC[C@H](C)[C@H]1O[C@]2(CC[C@@H]1C)C[C@@H]1C[C@@H](C/C=C(\C)[C@@H](O[C@H]3C[C@H](OC)[C@@H](O[C@H]4C[C@H](OC)[C@@H](O)[C@H](C)O4)[C@H](C)O3)[C@@H](C)/C=C/C=C3\CO[C@@H]4[C@H](O)C(C)=C[C@@H](C(=O)O1)[C@]34O)O2` [Ivermectin (IVM), Ivermectin], the “% viability Vero E6” value in the data set on Vero-E6 cells is listed as 93%. In addition, the “% viability Calu-3” value in the data set with Calu-3 cells turned out to be 87%. Moreover, in the data set on Vero-E6 and Calu-3 cells, the “MNCC Concentration” value was found to be 8 µM. In addition, in data set [3], the “Cmax (maximum plasma concentration)” value is 50 ng/mL. Moreover, in the data set with Vero E6 cells, the CC50 was 74 µM and the “CC50%” value is 64.8 µg/mL (≈ 74 µM).
As for `CCCCN(CCCC)CC(O)c1cc(Cl)cc2c1-c1ccc(Cl)cc1/C2=C/c1ccc(Cl)cc1` (stereo not shown) [Lumefantrine (LUM), Lumefantrine], the viability at 48 h in data set [1] and in [2] was 86% in each case. For the same molecule, the “MNCC Concentration” value with Vero-E6 and Calu-3 cells was 250 µM.
For `OC(c1cc(C(F)(F)F)nc2c(C(F)(F)F)cccc12)C1CCCCN1` (stereo not shown) [Mefloquine (MQ), Mefloquine], the viability at 48 h stood at 105% in [1] and 82% in data set [2]. In the data set with Vero-E6 and Calu-3 cells, the “MNCC Concentration” value amounted to 30 µM.
Taken in the same sequence, the figures for `CN(C)c1ccc2nc3ccc(=[N+](C)C)cc-3sc2c1` [Methylene Blue Injection (MBi), Methylene Blue] were 84%, 89% and 5 µM.
`COc1c(C)c2c(c(O)c1C/C=C(\C)CCC(=O)O)C(=O)OC2` [Mycophenolic acid (MYC), Mycophenolic acid]: the viability at 48 h in data set [1] amounted to 107%; in data set [2], 109%. The “MNCC Concentration” value in the data set with Vero-E6 and Calu-3 cells was found to be 5 µM.
Turning to `COc1cc(NC(C)CCCN)c2ncccc2c1` (stereo not shown) [Primaquine Phosphate (PQ), Primaquine Phosphate], the viability at 48 h in data set [1] worked out at 106%; in data set [2] it was 87%. In the data set on Vero-E6 and Calu-3 cells, the “MNCC Concentration” value came to 15 µM. Moreover, in data set [3], the “Cmax (maximum plasma concentration)” value was 50 ng/mL. The CC50 at 72 h stood at 5.5 µg/mL in [4] (CC50% in µg/mL, Vero E6); 21.2 µM in data set [4] (CC50%, Vero E6); 21.2 µM in [4] (setting [5]).
`CN1CCN(CCCN2c3ccccc3Sc3ccc(Cl)cc32)CC1` [Prochlorperazine (PCPZ), Prochlorperazine]: the viability at 48 h is 80% in data set [1] and less than 80% in data set [2]. Further, in the data set on Calu-3 cells, the “% viability Calu-3” value stood at 77%. Also, the “MNCC Concentration” value in the data set on Vero-E6 and Calu-3 cells turned out to be 30 µM.
Regarding `COc1ccc2nc3cc(Cl)ccc3c(Nc3cc(CN4CCCC4)c(O)c(CN4CCCC4)c3)c2n1` [Pyranoridine (PNO), Pyranoridine], the “% viability Vero E6” value with Vero-E6 cells amounted to 91%. Besides, the “% viability Calu-3” value is 78% in the data set on Calu-3 cells and less than 80% in the data set with Calu-3 cells (listed as PNO). The “MNCC Concentration” value in the data set on Vero-E6 and Calu-3 cells was 5 µM.
As to `CCc1nc(N)nc(N)c1-c1ccc(Cl)cc1` [Pyrimethamina (PYR), Pyrimethamina], the values for the viability at 48 h in [1] and in data set [2] were 94% and 92%, respectively. The “MNCC Concentration” value in the data set with Vero-E6 and Calu-3 cells stood at 125 µM.
Consider `C=C[C@H]1C[N@@]2CC[C@H]1C[C@H]2[C@H](O)c1ccnc2ccc(OC)cc12` [Quinine Sulfate (QN), Quinine Sulfate], for which the values for the viability at 48 h in data set [1] and in [2] were less than 80% and 90%, respectively. The “% viability Vero E6” value in the data set on Vero-E6 cells is 74%. In addition, in the data set with Vero-E6 and Calu-3 cells, the “MNCC Concentration” value was found to be 5 µM.
As for `NC(=O)c1ncn([C@@H]2O[C@H](CO)[C@@H](O)[C@H]2O)n1` [Ribavirin (RIB), Ribavirin], the figures for the viability at 48 h in data set [1] and in [2] were 104% and 91%, respectively. Further, the “MNCC Concentration” value in the data set on Vero-E6 and Calu-3 cells is 250 µM.
For the molecule Ferroquine [Ferroquine (FQ)], the “% viability Vero E6” value in the data set on Vero-E6 cells is recorded as 75%; in the data set with Vero-E6 cells (listed as FQ) it was less than 80%. In addition, the “% viability Calu-3” value in the data set on Calu-3 cells amounted to 63%. Moreover, the “MNCC Concentration” value in the data set with Vero-E6 and Calu-3 cells came out at 5 µM.
For “Ivermectin [Ivermectin Farmacia (IVM-f)]”, in the data set on Vero-E6 cells, the “% viability Vero E6” value stood at 101%. The “% viability Calu-3” value with Calu-3 cells is given as 67%; in the data set on Calu-3 cells (listed as IVM-f) it was less than 80%. Also, the “MNCC Concentration” value in the data set with Vero-E6 and Calu-3 cells was determined as 75 µM.
For “Ivermectin [Ivermectin Liquida (IVM-li)]”, the “% viability Vero E6” value in the data set with Vero-E6 cells is recorded as 85%. Further, the “% viability Calu-3” value in the data set with Calu-3 cells stood at 87%. In addition, in the data set with Vero-E6 and Calu-3 cells, the “MNCC Concentration” value was 30 µM.
